Test in all cases: Ba/F3 cell drug screening, Cell Titer Glo
Holding throughout (type): cell-based
In general terms: Cellular ATP, detected with luciferase, serves as a proxy for viable cell number.

For one assay, the target named is T1, EGFR A767insASV (Homo sapiens, UniProt P00533, DUP767-769).
T1 construct: expressed in transfected cells; host or cells: Ba/F3 (retroviral, pBabe-Puro based vector)
As to conditions: Ba/F3 cells expressing EGFR A767insASV; 72 hours. The gist of the method:
(§1)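 Ba/F3 cells stably expressing mutant EGFR (retroviral, puromycin-selected, FACS-sorted for EGFR) were kept in 1 ng/ml EGF without IL-3. Cells were exposed to seven TKI concentrations or DMSO for 72 hours, viability measured by CellTiter-Glo, normalized to DMSO, and IC50 interpolated from variable-slope fits.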

In a further assay the target is T2, EGFR Ex19del G796S (Homo sapiens, UniProt P00533, DEL746-750/G796S).
T2 construct: expressed in transfected cells; host or cells: Ba/F3 (retroviral transduction, pBabe-Puro based vectors)
As to conditions: Ba/F3 cells expressing EGFR Ex19del G796S; 72 hours. The method in brief: as §1

Another assay addresses T3, EGFR Ex19del/C797S (Homo sapiens, UniProt P00533, C797S/DEL746-750).
T3 construct: expressed in transfected cells; host or cells: Ba/F3 (murine pro-B cells), retroviral transduction with pBabe-Puro based vectors
As to conditions: Ba/F3 cells expressing EGFR Ex19del/C797S; 72 hours. The method in brief: as §1

The target of a further assay is T4, EGFR Ex19del/T790M/L792H (Homo sapiens, UniProt P00533, DEL746-750/L792H/T790M).
T4 construct: expressed in transfected cells; host or cells: Ba/F3 (retroviral transduction, pBabe-Puro based vectors)
To be noted: Ba/F3 cells expressing EGFR Ex19del/T790M/L792H; 72 hours. The gist of the method:
as §1

The target in another assay is T5, EGFR G719A T790M (Homo sapiens, UniProt P00533, G719A/T790M).
T5 construct: expressed in transfected cells; host or cells: Ba/F3 (retroviral transduction, pBabe-Puro based vectors)
As to conditions: Ba/F3 cells expressing EGFR G719A T790M; 72 hours. The method in brief: as §1

The target of another assay is T6, EGFR G719S (Homo sapiens, UniProt P00533, G719S).
T6 construct: expressed in transfected cells; host or cells: Ba/F3 (retroviral transduction, pBabe-Puro based vectors)
As to conditions: Ba/F3 cells expressing EGFR G719S; 72 hours. The gist of the method: as §1

The next assay addresses T7, EGFR K754E (Homo sapiens, UniProt P00533, K754E).
T7 construct: expressed in transfected cells; host or cells: Ba/F3 (retroviral, pBabe-Puro based vector)
To be noted: Ba/F3 cells expressing EGFR K754E; 72 hours. The gist of the method: as §1

Another assay deals with T8, EGFR L833V (Homo sapiens, UniProt P00533, L833V).
T8 construct: expressed in transfected cells; host or cells: Ba/F3 (retroviral, pBabe-Puro based vector)
To be noted: Ba/F3 cells expressing EGFR L833V; 72 hours. The gist of the method:
as §1

A further assay has as its target T9, EGFR L858R L718Q (Homo sapiens, UniProt P00533, L718Q/L858R).
T9 construct: host or cells: Ba/F3 (retroviral transduction, pBabe-Puro based vectors)
To be noted: Ba/F3 cells expressing EGFR L858R L718Q; 72 hours. The method in brief:
as §1

The target of another assay is T10, EGFR L858R S784F (Homo sapiens, UniProt P00533, L858R/S784F).
T10 construct: expressed in transfected cells; host or cells: Ba/F3 (retroviral, pBabe-Puro based vector; created by GeneScript from EGFR L858R)
To be noted: Ba/F3 cells expressing EGFR L858R S784F; 72 hours. The method in brief: as §1

For the next assay, the target named is T11, EGFR L858R T790M L718V (Homo sapiens, UniProt P00533, L718V/L858R/T790M).
T11 construct: expressed in transfected cells; host or cells: Ba/F3 (retroviral transduction, pBabe-Puro based vectors)
As to conditions: Ba/F3 cells expressing EGFR L858R T790M L718V; 72 hours. The method in brief:
as §1

The next assay deals with T12, EGFR L858R T790M V843I (Homo sapiens, UniProt P00533, L858R/T790M/V843I).
T12 construct: expressed in transfected cells; host or cells: Ba/F3 (retroviral transduction, pBabe-Puro based vectors)
As to conditions: Ba/F3 cells expressing EGFR L858R T790M V843I; 72 hours. The method in brief: as §1

For the next assay, the target named is T13, EGFR L858R/C797S (Homo sapiens, UniProt P00533, C797S/L858R).
T13 construct: expressed in transfected cells; host or cells: Ba/F3 (retroviral transduction, pBabe-Puro based vectors)
To be noted: Ba/F3 cells expressing EGFR L858R/C797S; 72 hours. The gist of the method: as §1

A further assay has as its target T14, EGFR L858R/V834L (Homo sapiens, UniProt P00533, L858R/V834L).
T14 construct: expressed in transfected cells; host or cells: Ba/F3 (retroviral, pBabe-Puro based vector)
To be noted: Ba/F3 cells expressing EGFR L858R/V834L; 72 hours. The method in brief:
as §1

The next assay addresses T15, EGFR R776C (Homo sapiens, UniProt P00533, R776C).
T15 construct: host or cells: Ba/F3 (retroviral transduction, pBabe-Puro based vectors)
As to conditions: Ba/F3 cells expressing EGFR R776C; 72 hours. The method in brief:
as §1

These results are taken from patent US20240108623A1, “METHODS OF TREATING CANCER WITH POZIOTINIB” (BOARD OF REGENTS, THE UNIVERSITY OF TEXAS SYSTEM, priority 2021, published 2024).

As to `C=CC(=O)N1CCC(Oc2cc3c(Nc4ccc(Cl)c(Cl)c4F)ncnc3cc2OC)CC1` [Poziotinib], the “Response of Cells Comprising Ex20ins EGFR Mutations to Poziotinib” value at EGFR A767insASV was 0.3183. Further, the “Response of Cells Comprising PACC EGFR Mutations to Second-Generation TKIs” value on EGFR Ex19del G796S was determined as 0.2054; at EGFR Ex19del/C797S, 0.458; on EGFR G719S, 0.04616; at EGFR L858R L718Q, 0.01623; on EGFR L858R/C797S it was 0.2299; at EGFR R776C it was 0.03049. Besides, the “Response of Cells Comprising T790M-like-R EGFR Mutations to Second-Generation TKIs” value worked out at 2157 at EGFR Ex19del/T790M/L792H and 33.63 at EGFR L858R T790M L718V. Moreover, the “Response of Cells Comprising T790M-like-S EGFR Mutations to Second-Generation TKIs” value at EGFR G719A T790M was 0.4851; on EGFR L858R T790M V843I, 5.408. For the same compound, the “Response of Cells Comprising Classical-Like EGFR Mutations to Second-Generation TKIs” value came out at 0.009588 at EGFR K754E, 0.004716 on EGFR L833V, 0.1185 at EGFR L858R S784F and 0.08599 at EGFR L858R/V834L.
